Experimental data published in ChEMBL document CHEMBL2396621, “Design, synthesis and biological evaluation of 2-mercapto-3-phenethylquinazoline bearing anilide fragments as potential antitumor agents: molecular docking study” (2013).

Key:
Assay type in all cases: functional
[1] = Cytotoxicity against human non-small cell lung cancer cells after 48 hrs by coulter counter analysis; conditions: Cancer cell lines
[2] = Cytotoxicity against human prostate cancer cells after 48 hrs by coulter counter analysis; conditions: Cancer cell lines
[3] = Cytotoxicity against human leukemia cells after 48 hrs by coulter counter analysis; conditions: Leukemia cell
[4] = Cytotoxicity against human renal cancer cells after 48 hrs by coulter counter analysis; conditions: Cancer cell lines
[5] = Cytotoxicity against human CNS cancer cells after 48 hrs by coulter counter analysis; conditions: Cancer cell lines
[6] = Cytotoxicity against human breast cancer cells after 48 hrs by coulter counter analysis; conditions: Cancer cell lines
[7] = Cytotoxicity against human melanoma cells after 48 hrs by coulter counter analysis; conditions: Melanoma cell
[8] = Cytotoxicity against human ovarian cancer cells after 48 hrs by coulter counter analysis; conditions: Cancer cell lines
[9] = Cytotoxicity against human colon cancer cells after 48 hrs by coulter counter analysis; conditions: Cancer cell lines
Hs-578T = test: Cytotoxicity against human Hs578T cells assessed as growth inhibition at 10 uM after 48 hrs by coulter counter analysis; conditions: read-out: GI
HT-29 = test: Cytotoxicity against human HT-29 cells assessed as growth inhibition at 10 uM after 48 hrs by coulter counter analysis; conditions: HT-29, 48 h, read-out: GI
HCT-116 = test: Cytotoxicity against human HCT116 cells assessed as growth inhibition at 10 uM after 48 hrs by coulter counter analysis; conditions: HCT-116, 48 h, read-out: GI
OVCAR-5 = test: Cytotoxicity against human OVCAR5 cells assessed as growth inhibition at 10 uM after 48 hrs by coulter counter analysis; conditions: OVCAR-5, 48 h, read-out: GI
UACC-257 = test: Cytotoxicity against human UACC257 cells assessed as growth inhibition at 10 uM after 48 hrs by coulter counter analysis; conditions: UACC-257, 48 h, read-out: GI
A549 = test: Cytotoxicity against human A549 cells assessed as growth inhibition at 10 uM after 48 hrs by coulter counter analysis; conditions: A549, 48 h, read-out: GI
SK-MEL-28 = test: Cytotoxicity against human SK-MEL-28 cells assessed as growth inhibition at 10 uM after 48 hrs by coulter counter analysis; conditions: SK-MEL-28, 48 h, read-out: GI
NCI-H322M = test: Cytotoxicity against human NCI-H322M cells assessed as growth inhibition at 10 uM after 48 hrs by coulter counter analysis; conditions: read-out: GI
M14 = test: Cytotoxicity against human M14 cells assessed as growth inhibition at 10 uM after 48 hrs by coulter counter analysis; conditions: M14, 48 h, read-out: GI
COLO 205 = test: Cytotoxicity against human COLO205 cells assessed as growth inhibition at 10 uM after 48 hrs by coulter counter analysis; conditions: COLO 205, 48 h, read-out: GI
[10] = Cytotoxicity against human NCI-ADR-RES cells assessed as growth inhibition at 10 uM after 48 hrs by coulter counter analysis; conditions: read-out: GI
OVCAR-3 = test: Cytotoxicity against human OVCAR3 cells assessed as growth inhibition at 10 uM after 48 hrs by coulter counter analysis; conditions: OVCAR-3, 48 h, read-out: GI
T47D = test: Cytotoxicity against human T47D cells assessed as growth inhibition at 10 uM after 48 hrs by coulter counter analysis; conditions: read-out: GI
SF-295 = test: Cytotoxicity against human SF295 cells assessed as growth inhibition at 10 uM after 48 hrs by coulter counter analysis; conditions: SF-295, 48 h, read-out: GI
ACHN = test: Cytotoxicity against human ACHN cells assessed as growth inhibition at 10 uM after 48 hrs by coulter counter analysis; conditions: read-out: GI
CAKI-1 = test: Cytotoxicity against human Caki1 cells assessed as growth inhibition at 10 uM after 48 hrs by coulter counter analysis; conditions: CAKI-1, 48 h, read-out: GI
NCI-H460 = test: Cytotoxicity against human NCI-H460 cells assessed as growth inhibition at 10 uM after 48 hrs by coulter counter analysis; conditions: NCI-H460, 48 h, read-out: GI
Malme-3M = test: Cytotoxicity against human MALME-3M cells assessed as growth inhibition at 10 uM after 48 hrs by coulter counter analysis; conditions: read-out: GI
NCI-H23 = test: Cytotoxicity against human NCI-H23 cells assessed as growth inhibition at 10 uM after 48 hrs by coulter counter analysis; conditions: NCI-H23, 48 h, read-out: GI
TK-10 = test: Cytotoxicity against human TK10 cells assessed as growth inhibition at 10 uM after 48 hrs by coulter counter analysis; conditions: TK-10, 48 h, read-out: GI
SW-620 = test: Cytotoxicity against human SW620 cells assessed as growth inhibition at 10 uM after 48 hrs by coulter counter analysis; conditions: SW-620, 48 h, read-out: GI
BT-549 = test: Cytotoxicity against human BT549 cells assessed as growth inhibition at 10 uM after 48 hrs by coulter counter analysis; conditions: BT-549, 48 h, read-out: GI
SNB-19 = test: Cytotoxicity against human SNB19 cells assessed as growth inhibition at 10 uM after 48 hrs by coulter counter analysis; conditions: SNB-19, 48 h, read-out: GI
OVCAR-8 = test: Cytotoxicity against human OVCAR8 cells assessed as growth inhibition at 10 uM after 48 hrs by coulter counter analysis; conditions: OVCAR-8, 48 h, read-out: GI
SK-MEL-5 = test: Cytotoxicity against human SK-MEL-5 cells assessed as growth inhibition at 10 uM after 48 hrs by coulter counter analysis; conditions: SK-MEL-5, 48 h, read-out: GI
OVCAR-4 = test: Cytotoxicity against human OVCAR4 cells assessed as growth inhibition at 10 uM after 48 hrs by coulter counter analysis; conditions: OVCAR-4, 48 h, read-out: GI
DU-145 = test: Cytotoxicity against human DU145 cells assessed as growth inhibition at 10 uM after 48 hrs by coulter counter analysis; conditions: DU-145, 48 h, read-out: GI
SN12C = test: Cytotoxicity against human SN12C cells assessed as growth inhibition at 10 uM after 48 hrs by coulter counter analysis; conditions: read-out: GI
MDA-MB-468 = test: Cytotoxicity against human MDA-MB-468 cells assessed as growth inhibition at 10 uM after 48 hrs by coulter counter analysis; conditions: MDA-MB-468, 48 h, read-out: GI
[11] = Cytotoxicity against human EKVX cells assessed as growth inhibition at 10 uM after 48 hrs by coulter counter analysis; conditions: read-out: GI
MDA-MB-435 = test: Cytotoxicity against human MDA-MB-435 cells assessed as growth inhibition at 10 uM after 48 hrs by coulter counter analysis; conditions: MDA-MB-435, 48 h, read-out: GI
HOP-62 = test: Cytotoxicity against human HOP62 cells assessed as growth inhibition at 10 uM after 48 hrs by coulter counter analysis; conditions: HOP-62, 48 h, read-out: GI
UACC-62 = test: Cytotoxicity against human UACC62 cells assessed as growth inhibition at 10 uM after 48 hrs by coulter counter analysis; conditions: UACC-62, 48 h, read-out: GI
HCT-15 = test: Cytotoxicity against human HCT15 cells assessed as growth inhibition at 10 uM after 48 hrs by coulter counter analysis; conditions: HCT-15, 48 h, read-out: GI
HCC 2998 = test: Cytotoxicity against human HCC2998 cells assessed as growth inhibition at 10 uM after 48 hrs by coulter counter analysis; conditions: HCC 2998, 48 h, read-out: GI
U-251 = test: Cytotoxicity against human U251 cells assessed as growth inhibition at 10 uM after 48 hrs by coulter counter analysis; conditions: U-251, 48 h, read-out: GI
A498 = test: Cytotoxicity against human A498 cells assessed as growth inhibition at 10 uM after 48 hrs by coulter counter analysis; conditions: A498, 48 h, read-out: GI
UO-31 = test: Cytotoxicity against human UO31 cells assessed as growth inhibition at 10 uM after 48 hrs by coulter counter analysis; conditions: UO-31, 48 h, read-out: GI
RXF 393 = test: Cytotoxicity against human RXF393 cells assessed as growth inhibition at 10 uM after 48 hrs by coulter counter analysis; conditions: RXF 393, 48 h, read-out: GI
SK-OV-3 = test: Cytotoxicity against human SKOV3 cells assessed as growth inhibition at 10 uM after 48 hrs by coulter counter analysis; conditions: SK-OV-3, 48 h, read-out: GI
KM12 = test: Cytotoxicity against human KM12 cells assessed as growth inhibition at 10 uM after 48 hrs by coulter counter analysis; conditions: KM12, 48 h, read-out: GI
SF-539 = test: Cytotoxicity against human SF539 cells assessed as growth inhibition at 10 uM after 48 hrs by coulter counter analysis; conditions: SF-539, 48 h, read-out: GI
PC-3 = test: Cytotoxicity against human PC3 cells assessed as growth inhibition at 10 uM after 48 hrs by coulter counter analysis; conditions: PC-3, 48 h, read-out: GI
MDA-MB-231 = test: Cytotoxicity against human MDA-MB-231 cells assessed as growth inhibition at 10 uM after 48 hrs by coulter counter analysis; conditions: MDA-MB-231, 48 h, read-out: GI
SNB-75 = test: Cytotoxicity against human SNB75 cells assessed as growth inhibition at 10 uM after 48 hrs by coulter counter analysis; conditions: SNB-75, 48 h, read-out: GI
[12] = read-out: LC50 (the source's name)

For `O=c1[nH]cc(F)c(=O)[nH]1` [FLUOROURACIL], the GI50 [1] was > 100 µM, the TGI [1] was > 100 µM and the CC50 [1, 12] was > 100 µM. For the same compound, the GI50 [2] was 22.7 µM, the TGI [2] was > 100 µM and the CC50 [2, 12] was > 100 µM. The TGI [3] was > 100 µM, the GI50 [4] was 45.6 µM and the TGI [4] was > 100 µM. The TGI [5] was > 100 µM, the CC50 [5, 12] was > 100 µM and the GI50 [6] was 76.4 µM. For the same compound, the TGI [6] was > 100 µM, the GI50 [7] was 70.6 µM and the TGI [7] was > 100 µM. For the same compound, the GI50 [8] was 61.4 µM, the TGI [8] was > 100 µM and the GI50 [9] was 8.4 µM. For the same compound, the TGI [9] was > 100 µM and the CC50 [9, 12] was > 100 µM.

For `NC(=O)CSc1nc2ccccc2c(=O)n1CCc1ccccc1`, the inhibition of growth at 10 µM (Hs-578T) was < 10%, the inhibition of growth at 10 µM (HT-29) was < 10% and the inhibition of growth at 10 µM (HCT-116) was < 10%. For the same compound, the inhibition of growth at 10 µM (OVCAR-5) was < 10%, the inhibition of growth at 10 µM (UACC-257) was < 10% and the inhibition of growth at 10 µM (A549) was 12%. For the same compound, the inhibition of growth at 10 µM (SK-MEL-28) was < 10%, the inhibition of growth at 10 µM (NCI-H322M) was < 10% and the inhibition of growth at 10 µM (M14) was < 10%. The inhibition of growth at 10 µM (COLO 205) was < 10%, the inhibition of growth at 10 µM [10] was < 10% and the inhibition of growth at 10 µM (OVCAR-3) was < 10%. The inhibition of growth at 10 µM (T47D) was < 10%, the inhibition of growth at 10 µM (SF-295) was < 10% and the inhibition of growth at 10 µM (ACHN) was 34%. The inhibition of growth at 10 µM (CAKI-1) was 12%, the inhibition of growth at 10 µM (NCI-H460) was < 10% and the inhibition of growth at 10 µM (Malme-3M) was < 10%. The inhibition of growth at 10 µM (NCI-H23) was < 10%, the inhibition of growth at 10 µM (TK-10) was < 10% and the inhibition of growth at 10 µM (SW-620) was < 10%. For the same compound, the inhibition of growth at 10 µM (BT-549) was < 10%, the inhibition of growth at 10 µM (SNB-19) was < 10% and the inhibition of growth at 10 µM (OVCAR-8) was < 10%. For the same compound, the inhibition of growth at 10 µM (SK-MEL-5) was < 10%, the inhibition of growth at 10 µM (OVCAR-4) was < 10% and the inhibition of growth at 10 µM (DU-145) was < 10%. The inhibition of growth at 10 µM (SN12C) was < 10%, the inhibition of growth at 10 µM (MDA-MB-468) was < 10% and the inhibition of growth at 10 µM [11] was 10%. The inhibition of growth at 10 µM (MDA-MB-435) was < 10%, the inhibition of growth at 10 µM (HOP-62) was < 10% and the inhibition of growth at 10 µM (UACC-62) was < 10%. For the same compound, the inhibition of growth at 10 µM (HCT-15) was < 10%, the inhibition of growth at 10 µM (HCC 2998) was < 10% and the inhibition of growth at 10 µM (U-251) was < 10%. For the same compound, the inhibition of growth at 10 µM (A498) was < 10%, the inhibition of growth at 10 µM (UO-31) was < 10% and the inhibition of growth at 10 µM (RXF 393) was < 10%. For the same compound, the inhibition of growth at 10 µM (SK-OV-3) was < 10%, the inhibition of growth at 10 µM (KM12) was < 10% and the inhibition of growth at 10 µM (SF-539) was < 10%. The inhibition of growth at 10 µM (PC-3) was < 10%, the inhibition of growth at 10 µM (MDA-MB-231) was < 10% and the inhibition of growth at 10 µM (SNB-75) was < 10%.
